A value given as a limit tells only on which side of the number the result lay.

The target in the first assay is Pseudomonas aeruginosa LpxC enzyme (Pseudomonas aeruginosa (strain ATCC 15692 / DSM 22644 / CIP 104116 / JCM 14847 / LMG 12228 / 1C / PRS 101 / PAO1), UniProt P47205). As to the kind of experiment: biochemical. It is filed as biochemical. As to conditions: class symbols A/B/C by IC50; Table 3; read-out: Enzyme inhibitory activity (inhibitory activity on Pseudomonas aeruginosa LpxC enzyme). As for the experimental part:
Test 1: Evaluation of the Inhibitory Activity on Pseudomonas aeruginosa LpxC Enzyme
An inhibition curve was constructed for each test compound by performing the aforementioned reaction at varying concentrations of the test compound. From this inhibition curve, the concentration of the test compound at which the formation of the reaction product was suppressed by 50% was determined as the IC50 of the test compound, which was an index for the inhibitory activity on Pseudomonas aeruginosa LpxC enzyme.
On to `CCOC1CN(Cc2ccc(C#Cc3ccc(C(=O)N(C)C(C(=O)NC)C(=O)NO)cc3)c(C)c2)C1` (centres unmarked) [Compound 568, 2-[{[4-({4-[(3-ethoxyazetidin-1-yl)methyl]-2-methylphenyl}ethynyl)phenyl]carbonyl}(methyl)amino]-N-hydroxy-N′-methylpropanediamide], for which the IC50 was less than 0.01 µM.

On to `CNC(=O)C(C(=O)NO)N(C)C(=O)c1ccc(C#Cc2ccc(CN3CC(=CCOC)C3)cc2)cc1` (centres unmarked) [Compound 530, N-hydroxy-2-[({4-[(4-{[3-(2-methoxyethylidene)azetidin-1-yl]methyl}phenyl)ethynyl]phenyl}carbonyl)(methyl)amino]-N′-methylpropanediamide], for which the IC50 is less than 0.01 µM.

The assay is the same for the next values; noted with them: inhibitory activity on Pseudomonas aeruginosa LpxC enzyme, class symbols A/B/C; read-out: Enzyme inhibitory activity.
With `CNC(=O)C(C(=O)NO)N(C)C(=O)c1ccc(C#Cc2ccc(OC)nc2)cc1` (centres unmarked) [Compound 219, N-hydroxy-2-[{4-[(6-methoxypyridin-3-yl)ethynyl]benzoyl}(methyl)amino]-N′-methylpropanediamide], the IC50 was less than 0.01 µM. On the same count and under the same terms, next, `CNC(=O)C(C(=O)NO)N(C)C(=O)c1ccc(-c2ccccc2F)c(F)c1` (centres unmarked) [Compound 73, 2-{[(2,2′-difluorobiphenyl-4-yl)carbonyl](methyl)amino}-N-hydroxy-N′-methylpropanediamide]: less than 0.01 µM; `Cn1ccnc1CNC(=O)C(NC(=O)c1ccc(-c2ccc(OCCO)cc2)cc1)C(=O)NO` (centres unmarked) [Compound 156, N-hydroxy-2-({[4′-(2-hydroxyethoxy)biphenyl-4-yl]carbonyl}amino)-N′-[(1-methyl-1H-imidazol-2-yl)methyl]propanediamide]: less than 0.01 µM; `CNC(=O)C(NC(=O)c1ccc(-c2ccc(NCCO)cc2)cc1)C(=O)NO` (centres unmarked) [Compound 114, N-hydroxy-2-[({4′-[(2-hydroxyethyl)amino]biphenyl-4-yl}carbonyl)amino]-N′-methylpropanediamide]: 0.01 to 0.1 µM. For the compound `CNC(=O)C(C(=O)NO)N(C)C(=O)c1ccc(OCc2ccccc2)cc1` (centres unmarked) [Compound 454, 2-[{[4-(benzyloxy)phenyl]carbonyl}(methyl)amino]-N-hydroxy-N′-methylpropanediamide], the IC50 is 0.01 to 0.1 µM. Still for that read-out and setting: next, `CN(C(=O)c1ccc(-c2ccccc2)cc1)C(C(=O)NO)C(=O)NCc1ncccn1` (centres unmarked) [Compound 170, 2-[(biphenyl-4-ylcarbonyl)(methyl)amino]-N-hydroxy-N′-(pyrimidin-2-ylmethyl)propanediamide]: greater than 0.1 µM.

For `CNC(=O)C(C(=O)NO)N(C)C(=O)c1ccc(C#Cc2ccc(C(F)(F)F)cc2)cc1` (centres unmarked) [Compound 420, N-hydroxy-N′-methyl-2-{methyl[(4-{[4-(trifluoromethyl)phenyl]ethynyl}phenyl)carbonyl]amino}propanediamide], the IC50 was in the range of 0.01 to 0.1 µM. The same measure, in the same setting: under `O=C(NC(C(=O)NO)C(=O)NCc1cncs1)c1ccc(-c2ccc(OCCO)cc2)cc1` (centres unmarked) [Compound 11, N-hydroxy-2-({[4′-(2-hydroxyethoxy)biphenyl-4-yl]carbonyl}amino)-N′-(1,3-thiazol-5-ylmethyl)propanediamide] stands less than 0.01 µM; under `CC(C)OCCNC(=O)C(NC(=O)c1ccc(-c2ccc(OCCO)cc2)cc1)C(=O)NO` (centres unmarked) [Compound 10, N-hydroxy-2-({[4′-(2-hydroxyethoxy)biphenyl-4-yl]carbonyl}amino)-N′-[2-(propan-2-yloxy)ethyl]propanediamide], 0.01 to 0.1 µM; under `CNC(=O)C(C(=O)NO)N(C)C(=O)c1ccc(-c2ccc(/C=N/OC)cc2)cc1` (centres unmarked) [Compound 260, N-hydroxy-2-[({4′-[(E)-(methoxyimino)methyl]biphenyl-4-yl}carbonyl)(methyl)amino]-N′-methylpropanediamide], less than 0.01 µM. The same measure, in the same setting: next, `CNC(=O)C(C(=O)NO)N(C)C(=O)c1ccc(-c2ccc3c(ccn3CCO)c2)cc1` (centres unmarked) [Compound 31, N-hydroxy-2-[{4-[1-(2-hydroxyethyl)-1H-indol-5-yl]benzoyl}(methyl)amino]-N′-methylpropanediamide]: less than 0.01 µM; `O=C(NC(C(=O)NO)C(=O)NCC1CCCO1)c1ccc(-c2ccc(OCCO)cc2)cc1` (centres unmarked) [Compound 134, N-hydroxy-2-({[4′-(2-hydroxyethoxy)biphenyl-4-yl]carbonyl}amino)-N′-(tetrahydrofuran-2-ylmethyl)propanediamide]: less than 0.01 µM; `CNC(=O)C(NC(=O)c1ccc(-c2ccccc2)cc1)C(=O)NO` (centres unmarked) [Compound 110, 2-[(biphenyl-4-ylcarbonyl)amino]-N-hydroxy-N′-methylpropanediamide]: 0.01 to 0.1 µM. Same read-out and setting: under `CCCc1ccc(-c2ccc(C(=O)N(C)C(C(=O)NC)C(=O)NO)cc2)cc1` (centres unmarked) [Compound 182, N-hydroxy-N′-methyl-2-{methyl[(4′-propylbiphenyl-4-yl)carbonyl]amino}propanediamide] stands less than 0.01 µM; under `CNC(=O)C(C(=O)NO)N(C)C(=O)c1ccc(C#Cc2ccc(CNCCF)cc2)cc1` (centres unmarked) [Compound 300, 2-[({4-[(4-{[(2-fluoroethyl)amino]methyl}phenyl)ethynyl]phenyl}carbonyl)(methyl)amino]-N-hydroxy-N′-methylpropanediamide], less than 0.01 µM; under `CNC(=O)C(C(=O)NO)N(C)C(=O)c1ccc(-c2ccc3ncn(C)c3c2)cc1` (centres unmarked) [Compound 282, N-hydroxy-N′-methyl-2-{methyl[4-(1-methyl-1H-benzimidazol-6-yl)benzoyl]amino}propanediamide], 0.01 to 0.1 µM. Take `CNC(=O)C(C(=O)NO)N(C)C(=O)c1ccc(-c2ccc(OC(C)C)cc2)cc1` (centres unmarked) [Compound 213, N-hydroxy-N′-methyl-2-(methyl {[4′-(propan-2-yloxy)biphenyl-4-yl]carbonyl}amino)propanediamide]: the IC50 was less than 0.01 µM. On the same count and under the same terms, under `CCNc1ccc(-c2ccc(C(=O)N(C)C(C(=O)NC)C(=O)NO)cc2)cc1F` (centres unmarked) [Compound 230, 2-[{[4′-(ethylamino)-3′-fluorobiphenyl-4-yl]carbonyl}(methyl)amino]-N-hydroxy-N′-methylpropanediamide] stands less than 0.01 µM. Still for that read-out and setting: under `CNC(=O)C(C(=O)NO)N(C)C(=O)c1ccc(-c2ccc(SC)cc2)cc1` (centres unmarked) [Compound 42, N-hydroxy-N′-methyl-2-(methyl {[4′-(methylsulfanyl)biphenyl-4-yl]carbonyl}amino)propanediamide] stands less than 0.01 µM.

On to `CNC(=O)C(C(=O)NO)N(C)C(=O)c1ccc(C#Cc2ccc(CN3CCCCC3)cc2)cc1` (centres unmarked) [Compound 234, N-hydroxy-N′-methyl-2-[methyl(4-{[4-(piperidin-1-ylmethyl)phenyl]ethynyl}benzoyl)amino]propanediamide], for which the IC50 is less than 0.01 µM. On the same count and under the same terms, under `CNC(=O)C(C(=O)NO)N(C)C(=O)c1ccc(-c2ccc(N3CCOCC3)cc2)cc1` (centres unmarked) [Compound 53, N-hydroxy-N′-methyl-2-(methyl {[4′-(morpholin-4-yl)biphenyl-4-yl]carbonyl}amino)propanediamide] stands 0.01 to 0.1 µM; under `CNC(=O)C(C(=O)NO)N(C)C(=O)c1ccc(-c2cnc3ccccc3c2)cc1` (centres unmarked) [Compound 192, N-hydroxy-N′-methyl-2-{methyl[4-(quinolin-3-yl)benzoyl]amino}propanediamide], 0.01 to 0.1 µM; under `CNC(=O)C(C(=O)NO)N(C)C(=O)c1ccc(-c2ccc(OCCCN3CCSCC3)cc2)cc1` (centres unmarked) [Compound 288, N-hydroxy-N′-methyl-2-[methyl({4′-[3-(thiomorpholin-4-yl)propoxy]biphenyl-4-yl}carbonyl)amino]propanediamide], less than 0.01 µM. Same read-out and setting: under `Cn1cc(CNC(=O)C(NC(=O)c2ccc(-c3ccc(OCCO)cc3)cc2)C(=O)NO)cn1` (centres unmarked) [Compound 147, N-hydroxy-2-({[4′-(2-hydroxyethoxy)biphenyl-4-yl]carbonyl}amino)-N′-[(1-methyl-1H-pyrazol-4-yl)methyl]propanediamide] stands less than 0.01 µM; under `CNC(=O)C(C(=O)NO)N(C)C(=O)c1ccc(-c2ccc(OCCCN3CCC(F)(F)CC3)cc2)cc1` (centres unmarked) [Compound 264, 2-[({4′-[3-(4,4-difluoropiperidin-1-yl)propoxy]biphenyl-4-yl}carbonyl)(methyl)amino]-N-hydroxy-N′-methylpropanediamide], less than 0.01 µM; under `CNC(=O)C(C(=O)NO)N(C)C(=O)c1ccc(-c2ccccc2)cc1O` (centres unmarked) [Compound 24, N-hydroxy-2-{[(3-hydroxybiphenyl-4-yl)carbonyl](methyl)amino}-N′-methylpropanediamide], greater than 0.1 µM. Still for that read-out and setting: under `CNC(=O)C(C(=O)NO)N(C)C(=O)c1ccc(-c2ccc(NCC3CC3)cc2)cc1` (centres unmarked) [Compound 79, 2-[({4′-[(cyclopropylmethyl)amino]biphenyl-4-yl}carbonyl)(methyl)amino]-N-hydroxy-N′-methylpropanediamide] stands less than 0.01 µM; under `CNC(=O)C(C(=O)NO)N(C)C(=O)c1ccc(-c2nc3ccccc3s2)cc1` (centres unmarked) [Compound 344, 2-[{[4-(1,3-benzothiazol-2-yl)phenyl]carbonyl}(methyl)amino]-N-hydroxy-N′-methylpropanediamide], 0.01 to 0.1 µM; under `CNC(=O)C(C(=O)NO)N(C)C(=O)c1ccc(C#Cc2ccc(OCCN3CCOCC3)cc2)cc1` (centres unmarked) [Compound 382, N-hydroxy-N′-methyl-2-(methyl {[4-({4-[2-(morpholin-4-yl)ethoxy]phenyl}ethynyl)phenyl]carbonyl}amino)propanediamide], less than 0.01 µM. On to `CNC(=O)C(C(=O)NO)N(C)C(=O)c1ccc(-c2ccc(CCCCN3CCOCC3)cc2)cc1` (centres unmarked) [Compound 221, N-hydroxy-N′-methyl-2-[methyl({4′-[4-(morpholin-4-yl)butyl]biphenyl-4-yl}carbonyl)amino]propanediamide], for which the IC50 was less than 0.01 µM.

Source of the values: US9073821B2, “Hydroxamic acid derivative” (priority 2010, dated 2015).
